Measurements published in patent US20060217425A1, “Methods of treating cancer using PPAR-gamma antagonists” (priority 2005, published 2006).
“Also recorded” adds a separate entry of the source. Where two headings read alike, the source gives them in different places.

Assays:
Format in all cases: cell-based
[1] = test system: panel of solid tumor and hematopoietic cancer cell lines; experiment: MTT proliferation assay, panel of solid tumor and hematopoietic cancer cell lines
Description: (§1) In one study, in vitro cytotoxicity of a PPARγ agonist with a favorable toxicity profile (pioglitazone [Actos®]) was tested against two PPARγ antagonists (T0070907 and GW9662) in a panel of solid tumor and hematopoietic cancer cell lines, using an MTT proliferation assay.
(§2) In one exemplary method, stock solutions of the above referenced agents were dissolved in 50:50 DMSO:DMF and then diluted into cell growth medium. Concentrations of 2-40 micromolar over 5-7 days provided significant growth inhibition for a range of hematopoietic (NHL & MM) and epithelial lines (renal cell, colon, breast). […] Also, both antagonists were dissolved in a cyclodextrin-propylene glycol vehicle and administered to mice at doses of 7.5-15 mg/kg intraperitoneally daily for 3 weeks with mild-moderate toxicity.

solid tumor lines = experiment: MTT proliferation assay, solid tumor lines
Description: as §1, §2

[2] = test system: Hematopoietic (NHL and MM) cell lines; experiment: MTT proliferation assay, hematopoietic (NHL and MM) cell lines; conditions: unit printed only in the preceding sentence
Description: as §1, §2

Compound | effect of combination with the agonist pioglitazone on growth inhibition of cancer cell lines [1] | relative potency ([1]; comparison of IC50 values) | IC50 (solid tumor lines; MTT proliferation assay, range across solid tumor lines, read-out: IC50 in solid tumor lines (range over lines)) | IC50 (solid tumor lines; mean±SD across solid tumor lines, read-out: IC50 in solid tumor lines, mean±SD) | IC50 ([2]; MTT proliferation assay, range across NHL and MM lines, read-out: IC50 in hematopoietic (NHL and MM) cell lines (range over lines)) | IC50 ([2]; mean±SD across NHL and MM lines, read-out: IC50 in hematopoietic (NHL and MM) cell lines, mean±SD)
O=C(Nc1ccccc1)c1cc([N+](=O)[O-])ccc1Cl [GW9662] | additive increases in growth inhibition; also recorded: additive effects |  |  |  |  | 
O=C(Nc1ccncc1)c1cc([N+](=O)[O-])ccc1Cl [T0070907] | additive increases in growth inhibition; also recorded: additive effects | more potent than GW9662 |  |  |  | 
CCc1ccc(CCOc2ccc(CC3SC(=O)NC3=O)cc2)nc1 (stereo not shown) [pioglitazone] |  |  | ≥ 11.1 µM | 60.1 ± 28.1 µM | 82 to 125 µM | 101 ± 17.7 µM
